These results are taken from publication PMC12566511, “The Evaluation of (1R,4R,7R,10R)-α,α′,α″,α‴-Tetramethyl-1,4,7,10-tetraazacyclododecane-1,4,7,10-tetraacetic Acid (DOTMA) as a Chelator for Zirconium-89” (Molecules, 2025).

Molecules are shown by their SMILES. Like-named read-outs stand apart in the source and are kept apart here.

For data set [1] the following is noted: cited from earlier work.
A short description of data set [2]: Solubility of the non-radioactive complex in conventional solvents. In kind it is physicochemical. The settings on record: every conventional solvent tested. The text has this: As with our previous studies and to assist in our understanding of the chemical reactivity of this ligand with ^89Zr, we attempted to characterize the Zr-DOTMA complex. Unfortunately, the synthesis of Zr-DOTMA was problematic. […] This insolubility prevented any rigorous characterization using standard analytical techniques such as solution NMR, mass spectrometry, or single crystal X-ray diffraction analysis. Thus, to provide some characterization data, we completed solid-state NMR of Zr-DOTMA and compared its spectrum with that of the DOTMA ligand (Figures S1 and S2). Briefly, the C-13 spectrum of the DOTMA ligand is composed of four groups of resonances consistent with CH3, CH2, CH, and COO^−. The spectra are assigned as COO^− near 182 ppm, CH at 58 ppm, CH2 centered near 48 ppm, and four methyl resonances near 9.5 ppm. The CH3 is attached to a chiral carbon atom at a stereogenic center. In contrast to the ligand spectra, the Zr-DOTMA spectrum is comprised of a major crystalline phase, apparently with Z’ = 1 having resonances consistent with CH3, CH2, CH, and COO at 11, 47, 66, and 179 ppm, respectively. It also has minor resonances near 52, 62, and 174 ppm. The resonances near 174 are composed of at least three unique carbons but, based on linewidth, appear to be crystalline in nature. The methyl groups are magnetically inequivalent.

Details of data set [3]: method as in PMID 28451334. The settings on record: normal mice, cited from earlier work.

Turning to `O=C([O-])CN1CCN(CC(=O)[O-])CCN(CC(=O)[O-])CCN(CC(=O)[O-])CC1.[89Zr+4]` [[^89Zr]Zr-DOTA], the LogP in data set [1] (value reported) is given as −3.80 ± 0.04.

Regarding `O=C([O-])CN1CCN(CC(=O)[O-])Cc2cccc(n2)CN(CC(=O)[O-])CC1.[89Zr+4]` [[^89Zr]Zr-PCTA], the LogP in data set [1] (previously reported results) is reported as −3.09 ± 0.03.

With `C[C@H](C(=O)[O-])N1CCN([C@H](C)C(=O)[O-])CCN([C@H](C)C(=O)[O-])CCN([C@H](C)C(=O)[O-])CC1.[Zr+4]` [Zr-DOTMA, Zirconium (1R,4R,7R,10R)-α,α′,α″,α‴-Tetramethyl-1,4,7,10-tetraazacyclododecane-1,4,7,10-tetraacetic Acid], the “solubility (in words)” value in data set [2] is recorded as “insoluble in every conventional solvent tested”.

Consider `CC(=O)N([O-])CCCCCNC(=O)CCC(=O)N([O-])CCCCCNC(=O)CCC(=O)N([O-])CCCCCN.[89Zr+4]` [[^89Zr]Zr-DFO], for which the LogP in data set [1] (previously reported results) is reported as −2.83 ± 0.03. Also, the “bone (72 h p.i., %ID/g ± SD)” value in data set [3] (bone) is listed as 0.079 ± 0.006 %ID/g. Further, the “kidney (72 h p.i., %ID/g ± SD)” value in data set [3] (kidney) was 0.69 ± 0.09 %ID/g. In data set [3] (liver), the “liver (72 h p.i., %ID/g ± SD)” value is on record as 0.066 ± 0.009 %ID/g.
